Read-outs that look alike come from different tables or passages of the source.
How the values were obtained:
[1] = system: TNF-α production in LPS-stimulated mouse mononuclear cells; test: Inhibitory action of TNF-α production using mouse mononuclear cells (in vitro); assay type: cell-based; conditions: mouse mononuclear cells from peripheral blood of C3H/He mouse; LPS 5 μg/mL, 21 hours; TNF-α ELISA; read-out: IC50 (nM), suppression action of TNF-α production
Description: Mouse mononuclear cells were isolated from the peripheral blood of C3H/He mouse (manufactured by Japan SLC Co., male), and were suspended in a culture medium (trade name RPMI 1640 manufactured by Gibco Co.) containing 10% bovine serum. The cells were seeded in a 96 well plate as 50,000 cells/well, the test compound was added at a desired concentration, and the plate was allowed to stand in an incubator containing 5% CO2 at .37° C. for 15 minutes. LPS was added thereafter at a final concentration of 5 μg/mL, and the plate was allowed to stand in the incubator for 21 hours.
The culture medium containing produced TNF-α was retrieved, and the amount of TNF-α was measured according to the protocol attached to mouse TNF-α ELISA kit (manufactured by R & D Systems Co.). […] The suppression action of TNF-α was expressed-by […] (nM). Ex. No. in Table 9 denotes the example No.

[2] = system: rabbit gastric gland cells; test: Action on gastric acid secretion ability (in vitro), 14C-aminopyrine uptake in gastric gland cells; assay type: cell-based; conditions: Oryctolagus cuniculus, histamine 0.3 to 1.0 μM
Description: Gastric acid secretion ability (as an index of the side effect) was tested according to the methods by BergLindh and Obrink (Acta Physiol. Scand. 97:401-414, 1976) and Sack and Speney (Am. J. Physiol. 243:G313-G319, 1982).
Gastric gland cells were prepared by collagenase treatment using male rabbit (Japanese white strain, manufactured by Oriental Yeast Co.).
The test compound, ^14C-aminopyrine (1.0 nmol/mL; 0.1 μCi/nmol) and histamine (0.3 to 1.0 μM) were incubated for a given time period, and gastric gland cell pellets obtained after centrifugation and washing were lysed with 100 μL of 1N-KOH. The lysate was filled in a scintillation vial containing a scintillation cocktail (manufactured by Perkin Elmer Co.) to measure the radioactivity. The gastric acid secretion action by the test compound was calculated as EC50, and the ratio of the activity relative to IC50 of suppression of TNF-α production described in Test Example 2 (degree of dissociation A) was determined from the following equation. The larger degree of dissociation A is more preferable. The results in Table 10 represent that secretion of the gastric acid ability(EC50) was lower activity in the compound of the invention, salts thereof or prodrugs thereof as compared with the suppression effect of TNF-α production(IC50). Ex. No. in Table 10 denotes the example No.
Degree of dissociation A=EC50 of gastric acid secretion ability/IC50 of suppression of TNF-α production

[3] = system: TNF-α production induced by LPS; test: Inhibitory action of TNF-α production (in vivo) induced by LPS using mouse
Description: C3H/He mouse (manufactured by Japan SLC Co., male) was used as a test animal. A desired concentration of the test sample was suspended in 0.5% methyl cellulose solution. The weight of the mouse was measured, and the test compound solution was orally administered at a dosage of 10 mL/kg while only 0.5% methyl cellulose was administered to the reference group. One group contained 5 to 7 mice. LPS was dissolved in physiological saline, and 10 μg was intraperitoneally administered to each mouse. The test compound was administered first, then LPS was administered 60 minutes thereafter. After 90 minutes, the blood was sampled from the large abdominal vein with the heparin, and a plasma was obtained by centrifugation. The content of TNF-α in the plasma was measured according to the protocol attached to TNF-α ELISA kit (manufactured by R & D System Co.). […] The suppression action of TNF-α production was represented by ED50 (mg/kg). Ex. No. in Table 11 denotes the example No.

[4] = system: T1, PDE4; test: Inhibitory action of PDE4 enzyme activity (PDE4 purified from U937 cells); assay type: biochemical; conditions: PDE4 fraction purified from U937 cells; [3H]-cAMP substrate; 30° C., 10 minutes
T1 construct: The PDE4 enzyme was purified from U937 cells that are the cells derived from lymphoma
Description: (1) Purification of PDE4 from U937 Cells
The PDE4 enzyme was purified from U937 cells that are the cells derived from lymphoma. U937 cells were suspended in buffer solution A (20 mM Tris-HCl(pH 6.5), 1 mM MgCl2, 0.1 mM EGTA, 3 mM 2-mercaptoethanol) containing protease. inhibitor cocktail (manufactured by Sigma Co.), and a soluble fraction was obtained by centrifugation after ultrasonic disintegration (100,000 G, 30 minutes, 4° C.). […] Each fraction was tested for the cAMP metabolized PDE activity to identify the fractions containing PDE4 enzyme.
(2) Measurement of Inhibitory Activity of PDE4 Enzyme Activity
A desired concentration of the test compound was allowed to react in a reaction mixture (100 μL; 40 mM Tris-HCl (pH 7.4), 5 MM MgCl2, 4 mM 2-mercaptoethanol, […] cAMP, 0.83 μCi [^3H]-cAMP and PDE4 fraction) at 30° C. for 10 minutes. The enzyme reaction was stopped by adding 25 μL of trichloroacetic acid to the reaction mixture. The reaction solution was charged on a neutral alumina column equilibrated with 0.1 M of 2-[[tris(hydroxylmethyl)methyl]-amino]-1-ethanesulfonic acid (TES) buffer (pH 8.0) and, after washing the column with a sufficient amount of 0.1 M TES buffer solution, the column was eluted with 2N NaOH. A 500 μL aliquot of the eluate containing [^3H]-5′AMP product was filled in a scintillation vial containing the scintillation cocktail (5 ml, manufactured by Perkin Elmer Co.) to measure radioactivity. […] The inhibitory action of PDE4 enzyme activity was expressed by IC50 (nM). Ex. No. in Table 8 denotes the example No.

[5] = system: Marshall ferret; test: Vomiting action using ferret; assay type: in vivo; conditions: oral, observed for more than 6 hours
Description: Marshall ferret (male, weight 1 to 1.5 kg, manufactured by Charles River Laboratories Japan, Inc.) was used. A desired concentration of the test compound was suspended in 0.5% methyl cellulose solution. The weight of a ferret was measured, and the solution of the test compound was orally administered at a dosage of 1 to 8 ml/kg. Only 0.5% methyl cellulose solution was administered to the reference group. One group contained 4 animals.

[6] = system: C3H/He mouse; test: Gastric emptying test of mouse (in vivo); conditions: oral, test meal 60 minutes after compound
Description: C3H/He mouse (manufactured by Japan SLC Co., male) fasted for 21 to 24 hours but allowed free access to water, was used as an experimental animal. A desired concentration of the test sample was suspended in 0.5% methyl cellulose solution. The weight of the mouse was measured, and the test compound solution was orally administered at a dosage of 10 mL/kg while only 0.5% methyl cellulose solution was administered to the reference group. One group contained 5 mice. A 1.5% methyl cellulose solution containing 0.05% phenol, red was used as a test meal solution. The test compound was administered, and 0.2 ml of the test meal was orally administered at 60 minutes thereafter. […] A 10% trichloroacetic acid solution (0.5 mL) was added to 5 mL of the supernatant, which was further centrifuged to remove proteins. A solution prepared by adding 125 μL of 2 N NaOH to the supernatant (1 mL) obtained by centrifugation was measured with a spectrophotometer (550 nm), and inhibition of transfer from the stomach to the small intestine was expressed by IC50 (mg/kg).

[7] = C3H/He mouse, orally administered 60 minutes before LPS 10 μg intraperitoneally, plasma TNF-α 90 minutes after LPS, read-out: ED50 (mg/kg), suppression action of TNF-α production
[8] = mouse, oral, LPS 60 minutes after compound, plasma TNF-α after 90 minutes, read-out: suppression of TNF-α production ED50

| Compound | IC50 [1] [nM] | EC50 [2] [nM] | IC50 [4] [nM] | gastric emptying test IC50 (inhibition of transfer from the stomach to the small intestine) [6] [mg/kg] | ED50 [3, 7] [mg/kg] | incidence of vomiting by the ferret ([5]; dosage of 100 mg/kg) | ED50 [3, 8] [mg/kg] | incidence of vomiting by the ferret ([5]; dosage of 50 mg/kg) |
| --- | --- | --- | --- | --- | --- | --- | --- | --- |
| CCc1nc(-c2cccs2)nc(Nc2ccc(CC(=O)O)cc2)c1CC [Example 84] | 533 | 1660 | – | – | 17 | – | – | – |
| CCc1c(C)nc(-c2ccc(SC)s2)nc1Nc1ccc(CC(=O)O)cc1 [Example 78] | 171 | 38400 | – | – | – | – | – | – |
| CCc1nc(-c2cccs2)nc(Nc2ccc(C(=O)O)cc2)c1CC [Example 83] | 46 | 169 | – | – | 22 | – | – | – |
| CCc1nc(-c2ccsc2)nc(Nc2ccc3cc(C(=O)O)ccc3c2)c1CC [Example 59] | 69 | 227 | 41 | – | 6 | – | – | – |
| CCc1c(C)nc(-c2ccc(Br)s2)nc1Nc1ccc(CC(=O)O)cc1 [Example 148] | 676 | 10100 | – | 85 | 12 | no incidence of vomiting | 12 | – |
| C=CCc1c(CC)nc(-c2ccsc2)nc1Nc1ccc2cc(C(=O)O)ccc2c1 [Example 17] | 24 | 1690 | 9 | 14 | 3 | – | 3 | no incidence of vomiting |

Continued, in another order:

| IC50 [1] [nM] | EC50 [2] [nM] | IC50 [4] [nM] | gastric emptying test IC50 (inhibition of transfer from the stomach to the small intestine) [6] [mg/kg] | Compound | ED50 [3, 7] [mg/kg] | incidence of vomiting by the ferret ([5]; dosage of 100 mg/kg) | ED50 [3, 8] [mg/kg] | incidence of vomiting by the ferret ([5]; dosage of 50 mg/kg) |
| --- | --- | --- | --- | --- | --- | --- | --- | --- |
| 44 | 460 | – | – | CCc1nc(-c2ccsc2)nc(Nc2ccc(C(=O)O)cc2)c1CC [Example 57] | 24 | – | – | – |
| 55 | – | 490 | – | CCCc1c(CC)nc(-c2ccsc2)nc1Nc1ccc(C(=O)O)cc1 [Example 15] | 13 | – | – | – |
| 695 | 1310 | – | – | CCc1nc(-c2ccsc2)nc(Nc2ccc(CC(=O)O)cc2)c1CC [Example 58] | 8 | – | – | – |
